Experimental data published in patent US20120135923A1, “Use of Melanocortins to Treat Dyslipidemia” (IPSEN PHARMA, S.A.S., priority 2009, published 2012).
Where two headings read alike, the source gives them in different places. Bridge positions count the residues as written; N and C are the ends. Square brackets hold non-standard residues; d marks the D form. Peptide text beside a SMILES is read from it. Bip = N[C@@H](Cc1ccc(-c2ccccc2)cc1)C(=O)O; 1Nal = N[C@@H](Cc1cccc2ccccc12)C(=O)O; d2Nal = N[C@H](Cc1ccc2ccccc2c1)C(=O)O; Bta = N[C@@H](Cc1csc2ccccc12)C(=O)O; hArg = N=C(N)NCCCC[C@H](N)C(=O)O; Nle = CCCC[C@H](N)C(=O)O; Ahx = NCCCCCC(=O)O; GABA = NCCCC(=O)O; βAla = NCCC(=O)O

Columns and labels:
hMC5-R [1] = biological target: T1, hMC5-R (Homo sapiens, UniProt P33032); test: cyclic AMP bioassay (ECL) in CHO-K1 cells; type: cell-based
T1 construct: expressed in transfected cells; host or cells: CHO-K1

hMC4-R [2] = biological target: T2, hMC4-R (Homo sapiens, UniProt P32245); test: Radioligand binding assay, [125I]-NDP-α-MSH competition, CHO-K1 membranes
T2 construct: expressed in transfected cells; host or cells: CHO-K1

hMC3-R [3] = biological target: T3, hMC3-R (Homo sapiens, UniProt P41968); test: as above
T3 construct: expressed in transfected cells; host or cells: CHO-K1

hMC1-R [4] = biological target: T4, hMC1-R (Homo sapiens, UniProt Q01726); test: as above
T4 construct: expressed in transfected cells; host or cells: CHO-K1

hMC5-R [5] = biological target: T1, hMC5-R; test: as above
hMC3-R [6] = biological target: T3, hMC3-R; test: cyclic AMP bioassay (ECL) in CHO-K1 cells; type: cell-based; conditions: for Kb: Table 9C/9D, antagonist potency by Schild analysis, read-out: Kb hMC3-R
Protocol: Intracellular cyclic AMP (cAMP) levels were determined by an electrochemiluminescence (ECL) assay (Meso Scale Discovery®, Gaithersburg, Md.; referred to hereinafter as MSD). […] Transgenic CHO-K1 cells stably expressing hMC receptor subtypes 1, 3, 4 or 5 were dispensed at a density of approximately 7,000 cells/well in 384-well Multi-Array®plates (MSD) containing integrated carbon electrodes and coated with anti-cAMP antibody. Increasing concentrations of the test compounds were added and the cells were incubated for approximately 40 minutes at approximately 37° C. […] At the end of the second incubation period read buffer (Tris-buffered solution containing an ECL co-reactant and Triton X-100 at ph 7.8) was added and the cAMP levels in the cell lysates were immediately determined by ECL detection with a Sector Imager 6000 Reader® (MSD). Data were analyzed using a computer-assisted non-linear regression analysis (XL fit; IDBS) and reported as either an EC50 value or a Kb value.
The Kb value reflects the potency of an antagonist and is determined by Schild analysis. In brief, concentration-response curves of an agonist are carried out in the presence of increasing concentrations of an antagonist. […] It is calculated by extrapolating the line on a Schild plot to zero on the y-axis.

hMC1-R [7] = biological target: T4, hMC1-R; test: cyclic AMP bioassay (ECL) in CHO-K1 cells; type: cell-based
hMC4-R [8] = biological target: T2, hMC4-R; test: cyclic AMP bioassay (ECL) in CHO-K1 cells; type: cell-based; conditions: for Kb: Table 9C/9D, antagonist potency by Schild analysis, read-out: Kb MC4-R
[9] = Table 9C/9D, read-out: EC50 hMC5-R
[10] = Table 9C/9D, read-out: EC50 hMC1-R
[11] = Table 9A/9B, read-out: EC50 hMC5-R
[12] = Table 9A/9B, read-out: EC50 hMC3-R
[13] = Table 9A/9B, read-out: EC50 hMC1-R
[14] = Table 9A/9B, read-out: EC50 hMC4-R

T4 sequence (Q01726 whole entry): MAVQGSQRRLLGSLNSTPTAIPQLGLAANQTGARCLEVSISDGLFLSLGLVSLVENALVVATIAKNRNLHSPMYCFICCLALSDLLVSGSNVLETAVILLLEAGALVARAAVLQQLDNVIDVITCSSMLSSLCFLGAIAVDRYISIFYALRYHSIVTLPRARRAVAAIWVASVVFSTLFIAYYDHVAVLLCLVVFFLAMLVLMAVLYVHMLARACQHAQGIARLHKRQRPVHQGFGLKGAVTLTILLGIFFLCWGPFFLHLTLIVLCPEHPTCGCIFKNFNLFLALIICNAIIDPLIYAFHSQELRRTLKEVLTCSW
T3 sequence (P41968 whole entry): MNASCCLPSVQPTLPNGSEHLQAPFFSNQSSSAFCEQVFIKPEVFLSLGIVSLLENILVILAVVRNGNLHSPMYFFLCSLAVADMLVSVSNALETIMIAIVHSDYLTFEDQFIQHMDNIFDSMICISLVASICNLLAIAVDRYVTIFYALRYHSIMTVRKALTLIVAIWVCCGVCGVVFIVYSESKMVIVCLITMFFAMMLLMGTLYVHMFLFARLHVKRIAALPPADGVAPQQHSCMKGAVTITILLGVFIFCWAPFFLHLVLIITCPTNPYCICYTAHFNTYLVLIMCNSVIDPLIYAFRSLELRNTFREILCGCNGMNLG
T2 sequence (P32245 whole entry): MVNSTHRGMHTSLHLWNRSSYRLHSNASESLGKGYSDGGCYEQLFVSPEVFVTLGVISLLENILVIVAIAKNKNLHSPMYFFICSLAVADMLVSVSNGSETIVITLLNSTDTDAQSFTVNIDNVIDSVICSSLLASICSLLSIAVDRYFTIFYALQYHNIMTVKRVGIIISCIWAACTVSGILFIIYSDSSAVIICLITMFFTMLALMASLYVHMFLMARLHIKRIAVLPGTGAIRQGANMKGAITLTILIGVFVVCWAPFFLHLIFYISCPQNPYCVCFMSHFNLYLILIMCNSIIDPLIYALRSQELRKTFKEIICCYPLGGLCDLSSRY
T1 sequence (P33032 whole entry): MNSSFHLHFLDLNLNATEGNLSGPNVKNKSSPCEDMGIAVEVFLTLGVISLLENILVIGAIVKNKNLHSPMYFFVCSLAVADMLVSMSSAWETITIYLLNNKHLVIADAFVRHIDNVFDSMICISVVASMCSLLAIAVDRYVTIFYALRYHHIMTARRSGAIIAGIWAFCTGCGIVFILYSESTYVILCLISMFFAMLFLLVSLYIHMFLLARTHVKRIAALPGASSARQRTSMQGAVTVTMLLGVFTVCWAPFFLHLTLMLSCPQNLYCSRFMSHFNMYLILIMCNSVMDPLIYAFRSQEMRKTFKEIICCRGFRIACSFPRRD

Structure (SMILES)	Ki (hMC4-R [2]; Table 5, read-out: Ki KMC4-R)	Ki (hMC3-R [3]; Table 5, read-out: Ki hMC3-R)	Ki (hMC1-R [4]; Table 5, read-out: Ki hMC1-R)	Ki (hMC5-R [5]; Table 5, read-out: Ki hMC5-R)	also measured
CC(=O)N[C@@H](CC1CCCCC1)C(=O)N[C@H]1CC(=O)NCCCC[C@@H](C(N)=O)NC(=O)CCCNC(=O)[C@H](Cc2c[nH]c3ccccc23)NC(=O)[C@H](CCCNC(=N)N)NC(=O)[C@@H](Cc2ccc3ccccc3c2)NC(=O)[C@H](Cc2c[nH]cn2)NC1=O [Ac-Cha-c(Asp-His-D-2-Nal-Arg-Trp-Gaba-Lys)-NH2]	2.82 nM	3.98 nM	0.576 nM	3.91 nM	EC50 (hMC5-R [1]; [9]): 0.736 nM; Kb (hMC3-R [6]): 3.02 nM; EC50 (hMC1-R [7]; [10]): 1.27 nM; Kb (hMC4-R [8]): 0.442 nM
CCCC[C@H](NC(C)=O)C(=O)N[C@H]1CSSC[C@@H](C(N)=O)NC(=O)[C@H](Cc2cccc3ccccc23)NC(=O)[C@H](CCCNC(=N)N)NC(=O)[C@@H](Cc2ccc3ccccc3c2)NC(=O)[C@H](Cc2c[nH]cn2)NC(=O)[C@@H](C)NC1=O [Ac-Nle-c(Cys-D-Ala-His-D-2-Nal-Arg-1-Nal-Cys)-NH2] (Ac-[Nle]C[dA]H[d2Nal]R[1Nal]C-NH2; disulfide 2-8)	3.07 nM	63.9 nM	114 nM	1660 nM	EC50 (hMC5-R [1]; [9]): 2840 nM; Kb (hMC3-R [6]): 61.5 nM; EC50 (hMC1-R [7]; [10]): 383 nM; Kb (hMC4-R [8]): 53.6 nM
CCCC[C@H](NC(C)=O)C(=O)N[C@H]1CSSC[C@@H](C(N)=O)NC(=O)[C@H](Cc2c[nH]c3ccccc23)NC(=O)[C@H](CCCNC(=N)N)NC(=O)[C@@H](Cc2ccccc2)NC(=O)[C@H](Cc2c[nH]cn2)NC(=O)[C@@H](C)NC1=O [Ac-Nle-c(Cys-D-Ala-His-D-Phe-Arg-Trp-Cys)-NH2]					EC50 (hMC5-R [1]): 420 nM; Ki (hMC4-R [2]; Ki KMC4-R, Table 5): 7.6 nM; Ki (hMC3-R [3]; Ki hMC3-R, Table 5): 26 nM; Ki (hMC1-R [4]; Ki hMC1-R, Table 5): 11 nM; Ki (hMC5-R [5]; Ki hMC5-R, Table 5): 1800 nM; EC50 (hMC3-R [6]): 0.33 nM; EC50 (hMC1-R [7]): 2.4 nM; EC50 (hMC4-R [8]): 0.078 nM
CCCC[C@H](NC(C)=O)C(=O)N[C@H]1CSSC[C@@H](C(N)=O)NC(=O)CCCCCNC(=O)[C@H](Cc2c[nH]c3ccccc23)NC(=O)[C@H](CCCNC(=N)N)NC(=O)[C@@H](Cc2ccc3ccccc3c2)NC(=O)[C@H](Cc2c[nH]cn2)NC1=O [Ac-Nle-c(Cys-His-D-2-Nal-Arg-Trp-Ahx-Cys)-NH2] (Ac-[Nle]CH[d2Nal]RW[Ahx]C-NH2; disulfide 2-8 (inferred))	0.998 nM	2.91 nM	0.333 nM	0.366 nM	EC50 (hMC5-R [1]; [9]): 0.126 nM; Kb (hMC3-R [6]): 10.8 nM; EC50 (hMC1-R [7]; [10]): 0.581 nM; Kb (hMC4-R [8]): 0.967 nM
CCCC[C@H](NC(C)=O)C(=O)N[C@H]1CSSC[C@@H](C(N)=O)NC(=O)CCCNC(=O)[C@H](Cc2c[nH]c3ccccc23)NC(=O)[C@H](CCCNC(=N)N)NC(=O)[C@@H](Cc2ccc3ccccc3c2)NC(=O)[C@H](Cc2c[nH]cn2)NC1=O [Ac-Nle-c(Cys-His-D-2-Nal-Arg-Trp-Gaba-Cys)-NH2] (Ac-[Nle]CH[d2Nal]RW[GABA]C-NH2; disulfide 2-8)	0.375 nM	1.86 nM	0.393 nM	1.11 nM	EC50 (hMC5-R [1]; [9]): 0.153 nM; Kb (hMC3-R [6]): 18.4 nM; EC50 (hMC1-R [7]; [10]): 0.231 nM; Kb (hMC4-R [8]): 0.782 nM
CC(=O)N[C@H]1CSSC[C@@H](C(=O)N2CCC[C@H]2C(=O)N2CCC[C@H]2C(=O)N[C@@H](CCCCN)C(=O)N[C@@H](CC(=O)O)C(N)=O)NC(=O)[C@H](C)NC(=O)[C@H](Cc2csc3ccccc23)NC(=O)[C@H](CCCNC(=N)N)NC(=O)[C@@H](Cc2ccc3ccccc3c2)NC(=O)[C@H](Cc2c[nH]cn2)NC(=O)[C@H](CCC(=O)O)NC1=O [Ac-c(Cys-Glu-His-D-2-Nal-Arg-Bal-Ala-Cys)-Pro-Pro-Lys-Asp-NH2] (Ac-CEH[d2Nal]R[Bta]ACPPKD-NH2; disulfide 1-8)					Ki (hMC4-R [2]; Table 6, read-out: Ki hMC4-R): 0.586 nM; Ki (hMC3-R [3]; Table 6, read-out: Ki hMC3-R): 23 nM; Ki (hMC1-R [4]; Table 6, read-out: Ki hMC1-R): 163 nM; Ki (hMC5-R [5]; Table 6, read-out: Ki hMC5-R): 844 nM
CCOc1ccc(C[C@H]2NC(=O)[C@H](Cc3c[nH]cn3)NC(=O)[C@@H](NC(=O)[C@H](N)Cc3ccccc3)CSSC[C@H](C(=O)N[C@H](C(N)=O)[C@@H](C)O)NC(=O)CCNC(=O)[C@H](Cc3ccc(-c4ccccc4)cc3)NC(=O)[C@H](CCCCNC(=N)N)NC2=O)cc1 [D-Phe-c(Cys-His-D-(Et)Tyr-hArg-Bip-β-Ala-D-Cys)-Thr-NH2] (H-[dF]CH[dY](Et)[hArg][Bip][βAla][dC]T-NH2; disulfide 2-8)	36.9 nM	85.6 nM	0.128 nM	38 nM	EC50 (hMC5-R [1]; [11]): 31.8 nM; EC50 (hMC3-R [6]; [12]): 81.8 nM; EC50 (hMC1-R [7]; [13]): 0.685 nM; EC50 (hMC4-R [8]; [14]): 86.9 nM
CCOc1ccc(C[C@H]2NC(=O)[C@H](Cc3c[nH]cn3)NC(=O)[C@@H](NC(=O)[C@H](N)Cc3ccccc3)CSSC[C@H](C(=O)N[C@H](C(N)=O)[C@@H](C)O)NC(=O)CCNC(=O)[C@H](Cc3c[nH]c4ccccc34)NC(=O)[C@H](CCCCNC(=N)N)NC2=O)cc1 [D-Phe-c(Cys-His-D-(Et)Tyr-hArg-Trp-β-Ala-D-Cys)-Thr-NH2] (H-[dF]CH[dY](Et)[hArg]W[βAla][dC]T-NH2; disulfide 2-8)	14.7 nM	31.4 nM	0.0567 nM	9.27 nM	EC50 (hMC5-R [1]; [11]): 2.38 nM; EC50 (hMC3-R [6]; [12]): 2.71 nM; EC50 (hMC1-R [7]; [13]): 0.345 nM; EC50 (hMC4-R [8]; [14]): 5.38 nM
C[C@@H](O)[C@H](NC(=O)[C@H]1CSSC[C@H](NC(=O)[C@H](N)Cc2ccccc2)C(=O)N[C@@H](Cc2c[nH]cn2)C(=O)N[C@H](Cc2ccccc2)C(=O)N[C@@H](CCCNC(=N)N)C(=O)N[C@@H](Cc2ccc(-c3ccccc3)cc2)C(=O)NCCC(=O)N1)C(N)=O [D-Phe-c(Cys-His-D-Phe-Arg-Bip-β-Ala-D-Cys)-Thr-NH2] (H-[dF]CH[dF]R[Bip][βAla][dC]T-NH2; disulfide 2-8)	583 nM	3370 nM	5.8 nM	1130 nM	
C[C@@H](O)[C@H](NC(=O)[C@H]1CSSC[C@H](NC(=O)[C@H](N)Cc2ccccc2)C(=O)N[C@@H](Cc2c[nH]cn2)C(=O)N[C@H](Cc2ccccc2)C(=O)N[C@@H](CCCNC(=N)N)C(=O)N[C@@H](Cc2c[nH]c3ccccc23)C(=O)NCCCC(=O)N1)C(N)=O [D-Phe-c(Cys-His-D-Phe-Arg-Trp-Gaba-D-Cys)-Thr-NH2] (H-[dF]CH[dF]RW[GABA][dC]T-NH2; disulfide 2-8)	4.75 nM	106 nM	0.42 nM	1260 nM	
C[C@@H](O)[C@H](NC(=O)[C@H]1CSSC[C@H](NC(=O)[C@H](N)Cc2ccccc2)C(=O)N[C@@H](Cc2c[nH]cn2)C(=O)N[C@H](Cc2ccccc2)C(=O)N[C@@H](CCCNC(=N)N)C(=O)N[C@@H](Cc2c[nH]c3ccccc23)C(=O)NCCC(=O)N1)C(N)=O [D-Phe-c(Cys-His-D-Phe-Arg-Trp-β-Ala-D-Cys)-Thr-NH2] (H-[dF]CH[dF]RW[βAla][dC]T-NH2; disulfide 2-8)	2.58 nM	43.2 nM	0.207 nM	344 nM	
C[C@@H](O)[C@H](NC(=O)[C@H]1CSSC[C@H](NC(=O)[C@H](N)Cc2ccccc2)C(=O)N[C@@H](Cc2c[nH]cn2)C(=O)N[C@H](Cc2ccccc2)C(=O)N[C@@H](CCCCNC(=N)N)C(=O)N[C@@H](Cc2ccc(-c3ccccc3)cc2)C(=O)NCCC(=O)N1)C(N)=O [D-Phe-c(Cys-His-D-Phe-hArg-Bip-β-Ala-D-Cys)-Thr-NH2] (H-[dF]CH[dF][hArg][Bip][βAla][dC]T-NH2; disulfide 2-8 (inferred))	172 nM	1260 nM	1.68 nM	1220 nM	
C[C@@H](O)[C@H](NC(=O)[C@H]1CSSC[C@H](NC(=O)[C@H](N)Cc2ccccc2)C(=O)N[C@@H](Cc2c[nH]cn2)C(=O)N[C@H](Cc2ccccc2)C(=O)N[C@@H](CCCCNC(=N)N)C(=O)N[C@@H](Cc2c[nH]c3ccccc23)C(=O)NCCC(=O)N1)C(N)=O [D-Phe-c(Cys-His-D-Phe-hArg-Trp-β-Ala-D-Cys)-Thr-NH2] (H-[dF]CH[dF][hArg]W[βAla][dC]T-NH2; disulfide 2-8)	10.3 nM	123 nM	0.442 nM	521 nM	
C[C@@H]1C(=O)N[C@@H](Cc2cnc[nH]2)C(=O)N[C@H](Cc2ccccc2)C(=O)N[C@@H](CCCNC(=N)N)C(=O)N[C@@H](Cc2c[nH]c3ccccc23)C(=O)N[C@H](C(N)=O)CCNC(=O)CC[C@@H]2NC(=O)N1C2=O [c[Hydantoin(C(O)-(Glu-D-Ala))-His-D-Phe-Arg-Trp-Dab]-NH2]					Ki (hMC4-R [2]; Table 7, read-out: Ki hMC4): 12.7 nM; Ki (hMC3-R [3]; Table 7, read-out: Ki hMC3): 90.5 nM; Ki (hMC1-R [4]; Table 7, read-out: Ki hMC1): 28 nM; Ki (hMC5-R [5]; Table 7, read-out: Ki hMC5): 877 nM
